Results: publication PMC8804135 (Neurotherapeutics, 2021)
Numbered stars: 1 amine (or outer) side, 2 acyl side, 3 side chain; on linkers, the order of the positions; unused ones are H or OH. Bridge positions count the residues as written; N and C are the ends. Square brackets hold non-standard residues; d marks the D form. Peptide text beside a SMILES is read from it. dAbu(3S-yl) = C[C@@H]([C@@H](N[*:1])C(=O)[*:2])[*:3]; pGlu = O=C1CC[C@@H](C(=O)O)N1

How the values were obtained:
GAL2R [1] = target: T1, GAL2R (Homo sapiens, UniProt O43603); assay: PathHunter eXpress β-arrestin recruitment assay, GAL2R; type: cell-based; parameters: expressed in transfected cells; details: Table 3; CHO-K1 cells co-expressing GAL2R and β-arrestin 2; 10 µM to 5 nM; (average) ratio, (n) in cell = number of assays; NA = ratio above 1000
T1 sequence (O43603 1-387): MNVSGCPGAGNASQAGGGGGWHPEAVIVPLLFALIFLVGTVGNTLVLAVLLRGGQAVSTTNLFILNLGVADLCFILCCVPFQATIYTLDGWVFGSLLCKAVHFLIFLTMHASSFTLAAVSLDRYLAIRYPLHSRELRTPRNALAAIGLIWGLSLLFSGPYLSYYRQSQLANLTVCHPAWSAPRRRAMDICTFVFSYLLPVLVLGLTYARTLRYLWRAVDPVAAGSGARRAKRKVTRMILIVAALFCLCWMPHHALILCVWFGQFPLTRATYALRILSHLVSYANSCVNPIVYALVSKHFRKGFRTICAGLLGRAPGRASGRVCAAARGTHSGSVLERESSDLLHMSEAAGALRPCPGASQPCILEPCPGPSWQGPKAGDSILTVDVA
Procedure: To evaluate the ability of lanthipeptides to recruit ß-arrestins via GAL1R or via GAL2R, we used the PathHunter® eXpress GAL1R, CHO-K1, β-arrestin GPCR Assay and the PathHunter® eXpress GAL2R, CHO-K1, β-arrestin, GPCR Assay from Eurofins-DiscoverX. The assays were performed according to the manufacturer’s instructions. Briefly, for one assay, CHO-K1 cells co-expressing GAL1R or GAL2R and β-arrestin (isoform 2) were diluted in AssayComplete™ Cell Plating Reagent, and 100 µl was seeded into each well of a 96-well plate. The plate was incubated at 37 °C, 5% CO2 in a humidified incubator. A serial 3 × dilution of the lanthipeptides in water was made (10 µM to 5 nM). After 48 h of incubation, 10 µl of the serial dilutions was applied to the cells in duplicate. The agonists were incubated for 90 min at 37 °C. Next, 55 µL of Working Detection Solution was added, and after 1 h of incubation at room temperature in the dark, the chemiluminescent signal was read with a Synergy HT Biotek reader.

[2] = Hydrophobicity and solubility of the peptide for intranasal formulation; type: physicochemical; details: in 10% (2-hydroxypropyl)-ß-cyclodextrin (HBC)
Procedure: For intranasal delivery, 1 mg of M89b was first dissolved in 566 µl 2,2,2-trifluorethanol, 566 µl 10% (2-hydroxypropyl)-ß-cyclodextrin (HBC), and 1 µl acetic acid and incubated at 60 °C for 20 min. Another 566 µl of 10% HBC were added. The peptide was then dried in a speed-vac, and the dried pellet was dissolved in 1132 µl water by vortexing and incubation at 60 °C. M871 and GALP were purchased from GL Biochem. M871 was dissolved in saline containing 10% HBC. GALP was dissolved in saline containing 5% α-cyclodextrin.

[3] = mouse, in vivo, 1 mg/kg
Procedure: Pharmacokinetics studies were performed at Pharmidex UK. The animal experimental protocols were approved by the UK Government Home Office and carried out in accordance with the guidelines of the Animals (Scientific Procedures) Act (1986). Ethical approval was subject to UK Home Office license number P651A96A4.
One mg HPLC-purified and HPLC-quantified M89b was dissolved in 1 ml Milli-Q followed by thorough vortexing and warming the solution for 10 min to 60 °C. From this solution, a dilution in 0.1% 2-hydroxypropyl-β-cyclodextrin was made. Male CD1 mice (weighing 26.5 to 32.9 g, n = 3 per time point) were used for the pharmacokinetic studies. Mice were given 1 mg/kg M89b either subcutaneously (s.c.) or intravenously (i.v.). Samples were collected after 2, 5, 10, 15, 30, 60, 120, and 240 min. Post-dosing, the 4 h mice were individually housed in metabolic cages for cold collection of urine in pre-weighed tubes which were re-weighed prior to storage. At each scheduled sampling time point, terminal blood was collected from each animal by cardiac puncture in heparin-containing tubes (20 IU heparin/mL of blood) kept on wet ice. The blood was centrifuged (5 min at 21, 100 g at 4 °C), and the resulting plasma was transferred to the corresponding labeled polypropylene tubes prior to storage. […]

[4] = In vitro stability in rat serum; type: in vitro ADME; details: rat, serum, pH 7.4
Procedure: At various time points (0, 30, 90, 270, and 1410 min), 180 µl of samples were quenched with 10 µl 10% TFA and 20 µl 100% ACN. Samples were centrifuged and kept on ice. The amount of full-length peptides in the serum was analyzed using a C12 column (C12 RP 250 × 4.60 mm column, Phenomenex) on a JASCO HPLC system and applying a gradient of 10–90% ACN in 0.1% TFA for 45 min. Peptides were detected at 280 nm. A280 areas in chromatograms of the corresponding GAL-(1–15) and M89b full-length peptide peaks were used to determine the amount of peptide left after incubation with 5% rat serum at the different time points. Peptide peaks were determined using JASCO-Borwin Chromatography software (v1.50).

GAL2R [5] = target: T1, GAL2R; assay: Fluo-4 Direct calcium assay (Ca efflux) in HEK293 cells overexpressing GAL2R; type: cell-based; details: Table 3; HEK293 cells stably overexpressing GAL2R; Fluo-4, from 10 µM; (average) ratio, (n) in cell = number of assays; NA = ratio above 1000
Procedure: Calcium efflux was measured by using a Fluo-4 Direct Calcium Assay purchased from Thermo Fisher Scientific. HEK293 cells with stable overexpression of GAL2R (HEKR2) (kindly provided by Harald Dargatz, Molecular, Cellular and Pharmacobiology Section, Institute of Pharmaceutical Biology, University of Bonn, 53,115 Bonn, Germany) were used for analysis of the lanthipeptides. HEKR2 cells were seeded in a 96-well plate and grown overnight in DMEM supplemented with 10% FBS, 1% penicillin–streptomycin, 100 µg/ml Normocin, and 500 µg/ml G418 at 37 °C, 5% CO2 in a humidified incubator.
The next day, when the cells were nearly confluent, an equal amount of 2 × Fluo-4 Direct™ calcium reagent loading solution, containing 5 mM probenecid, was added to the wells, and the plate was incubated for 1 h at 37 °C. A serial 3 × dilution of the agonist compound in water was made, and 10 µl of the serial dilutions was applied to the cells in duplicate. The starting concentration of agonist in the assay was 10 µM. After 1–2 h of incubation at room temperature, the fluorescence was measured with excitation at 485/20 nm and emission at 528/20 nm with a Synergy HT Biotek reader.

## CC(C)C[C@H](NC(=O)[C@H](CC(C)C)NC(=O)[C@H](Cc1ccc(O)cc1)NC(=O)CNC(=O)[C@H](C)NC(=O)[C@H](C)NC(=O)[C@H](CC(N)=O)NC(=O)[C@H](CC(C)C)NC(=O)[C@H](CC(N)=O)NC(=O)[C@H](Cc1c[nH]c2ccccc12)NC(=O)[C@@H]1CCC(=O)N1)C(=O)N[C@@H](C)C(=O)N[C@H]1C(=O)N[C@@H](Cc2c[nH]cn2)C(=O)N[C@@H](C)C(=O)N[C@H](C(=O)NCC(=O)O)CS[C@H]1C [Variant M89b, G1pE-T3N-S6A-G12A-methyllanthionine[13–16]-galanin-(1–17)] ([pGlu]WNLNAAGYLLA[dAbu(3S-yl)]HACG-OH; thioether 13-16; C-terminus assumed)
GAL2R [1]
  EC50 ratios to Gal-(1-15), GAL2R ß-Arrestin: 1.7 (3)
[2]
  Solubility: improved solubility
[3]
  Detection in urine samples: not detected
[3]; sc
  Detection in brain tissue: not detected
[4]
  half-life at 10 µM: > 24 h
  metabolised at 23.5 h, 10 µM: 40%
  remaining at 23.5 h, 10 µM: ~60%
GAL2R [5]
  EC50 ratios to Gal-(1-15), GAL2R Ca-efflux: 1.4 (3)
